Measured values reported in patent US10758516B2, “Methods and compositions for the treatment of gliomas” (University of Cincinnati, priority 2017, dated 2020).

Assays:
EP2 receptor [1] = target: T1, EP2 receptor (Homo sapiens, UniProt P43116); assay: PGE2-mediated cAMP signaling in SF767 glioma cells; format: cell-based; conditions: for PGE2-promoted cAMP synthesis: antagonist 1 μM and 10 μM, n=5
T1 construct: endogenous in cells; host or cells: SF767 human glioblastoma cells
Source text: (§1) FIG. 1. Bar graph showing PGE2 mediated cAMP signaling via EP2 receptor in human malignant glioma cells LN229 (top) and SF767 (bottom).
(§2) (n=5, *P<0.05; ***P<0.001, one-way ANOVA and post-hoc Bonferroni test). Data are shown as mean+SEM.

EP2 receptor [2] = target: T1, EP2 receptor; assay: PGE2-mediated cAMP signaling in LN229 glioma cells; format: cell-based; conditions: for PGE2-promoted cAMP synthesis: antagonist 1 μM and 10 μM, n=5
Source text: as §1, §2

[3] = test system: flank tumors formed by human GBM cells SF767; assay: Flank (subcutaneous) tumor xenograft in athymic nude mice; format: in vivo; conditions: 10 mg/kg, p.o., b.i.d.; measured 4 weeks after xenograft surgery; n=7, P<0.05
Source text: FIG. 4. Bar graph comparing flank tumor size in athymic nude mice treated with vehicle versus mice treated with TG6-10-1 measured 4 weeks after xenograft surgery.
Data are shown as mean+SEM.

[4] = test system: intracranial tumors formed by human GBM cells LN229; assay: Intracranial (orthotopic) tumor xenograft in athymic nude mice; format: in vivo
Source text: FIG. 8. Graph showing that the survival rate of mice harboring intracranial tumors derived from human GBM cells LN229 receiving TG6-10-1 is greater than the survival rate of mice receiving vehicle only.
Data are shown as mean±SEM.
Survival rates of mice that harbored intracranial tumors derived from human GBM cells LN229 after receiving vehicle (n=20) or TG6-10-1 (n=28) for 28 days (P=2.835E-4 Kaplan-Meier survival analysis with post-hoc log-rank test).

human GBM cells SF767 = assay: Cell invasion of COX-2-overexpressing SF767 cells; format: cell-based; conditions: 10 μM, measured after 48 h, n=4, P<0.01 vs control
GBM cells LN229 = assay: Wound closure (migration) of COX-2-overexpressing LN229 cells; format: cell-based, human; conditions: 10 μM, n=3, compared with COX-2 overexpression group
[5] = concentration-dependent, forskolin 100 μM

T1 sequence (P43116 whole entry): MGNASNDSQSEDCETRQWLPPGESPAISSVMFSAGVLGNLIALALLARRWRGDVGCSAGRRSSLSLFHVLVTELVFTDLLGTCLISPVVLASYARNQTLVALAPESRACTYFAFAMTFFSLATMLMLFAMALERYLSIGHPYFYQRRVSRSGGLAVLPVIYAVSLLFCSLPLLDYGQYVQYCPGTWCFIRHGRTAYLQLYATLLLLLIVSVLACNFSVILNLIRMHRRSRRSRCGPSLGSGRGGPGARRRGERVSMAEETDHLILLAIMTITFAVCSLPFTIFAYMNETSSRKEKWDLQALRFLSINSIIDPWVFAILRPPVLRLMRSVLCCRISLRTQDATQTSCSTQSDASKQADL

cAMP levels (EP2 receptor [1]; [5]) | cAMP levels (EP2 receptor [2]; [5]) | SMILES | PGE2-promoted cAMP synthesis (EP2 receptor [1]) | growth of flank tumors [3] | growth of intracranial tumors ([4]; 10 mg/kg, p.o., b.i.d., bioluminescence weekly, n=7, P<0.01) | survival of mice harboring intracranial tumors ([4]; treatment for 28 days, vehicle n=20, TG6-10-1 n=28, P=2.835E-4, Kaplan-Meier, log-rank) | cell invasion increased by COX-2 overexpression (human GBM cells SF767) | PGE2-promoted cAMP synthesis (EP2 receptor [2]) | wound closure increased by COX-2 overexpression (GBM cells LN229)
increases cAMP levels | increases cAMP levels | CCCCC[C@H](O)/C=C/[C@H]1[C@H](O)CC(=O)[C@@H]1C/C=C\CCCC(=O)O [PGE2, Prostaglandin E2, reference compound] | – | – | – | – | – | – | –
– | – | COc1cc(/C=C/C(=O)NCCn2c(C(F)(F)F)cc3ccccc32)cc(OC)c1OC [TG6-10-1] | largely blocked | reduced the growth | reduced the growth | improved survival | attenuated | largely blocked | attenuated
– | – | COc1cc(/C=C/C(=O)NCCn2c(C)cc3ccccc32)cc(OC)c1OC [TG4-155] | largely blocked | – | – | – | attenuated | largely blocked | attenuated
